Experimental data published in US10793522B2, “Sulfonamides as inhibitors of the uptake of extracellular citrate” (Boehringer Ingelheim International GmbH, priority 2016, dated 2020).
pIC50: −log10 of the molar value.

Legend:
[1] = biological target: T1, hSLC13A5 (Homo sapiens, UniProt Q86YT5); assay: HepG2/14C-citrate uptake assay; assay type: cell-based; parameters: HepG2 cells endogenously express hSLC13A5 transporter which is responsible for the uptake of citrate into these cells; endogenous in cells; host or cells: HepG2; settings: HepG2 cells endogenously expressing hSLC13A5; Cytostar-T; 14C-citrate ~1.8 μM; incubation over night
Text: (4) HepG2/^14C-Citrate Uptake Assay
HepG2 cells endogenously expressing hSLC13A5 were obtained from the Wistar Institute (Knowles et al., Science 1980, 209, 497-499).
HepG2 cells endogenously express hSLC13A5 transporter which is responsible for the uptake of citrate into these cells. […] The uptake of ^14C-citrate into HepG2 cells is monitored using the Cytostar-T assay. This assay format is based on the imported radioactive citrate brought into proximity with the scintillant contained within the base of the plate by virtue of the biological processes within the cells. The radioactive decay is converted to a light signal based on the integration of the scintillation matrix into the assay plate.
(§1) Method: ^14C-Citrate Uptake Assay
Starting from 10 mM stock solutions in 100% DMSO, compounds are diluted in pure DMSO using the appropriate dilution steps. Prior to the uptake assay, 400 μL assay medium+4.8 μL compound solution (or pure DMSO for non-inhibited control wells) are mixed (final DMSO concentration in the assay: 1% (v/v)) ^14C-citrate working solution (volumes required per 96-well):
The HepG2 cells are cultivated in cell culture medium (EMEM+10% fetal calf serum+1×NEAA and 10 mM L-Glutamin) For the assay, the medium of the confluent cultures is discarded and the cells are washed with DPBS w/o Mg^2+ w/o Ca^2+. The cells are detached by the addition of 1.0 mL 2× Trypsin in DPBS w/o Mg^2+ w/o Ca^2+ with 7.5 mM EDTA per 75 cm^2 culture flask for up to 3 minutes at 37° C. and resuspended in 10 mL cell culture medium. Following cell counting, 100,000 cells/well are seeded in a volume of 200 μL into Cytostar-T Scintillating 96-well microplates. After overnight incubation in a humid cell culture incubator at 37° C., 5% CO2, the cell culture medium is carefully aspirated and the cells are incubated with 200 μL prewarmed (37° C.) assay medium (50% DMEM+50% Ham's F-12+15 mM HEPES (pH 7.4) (medium contains 15.5 m M D(+)-glucose) per well for at least 1 h prior to the experiment.
Immediately prior to uptake assay, the assay medium is carefully removed and 100 μL test compound dilution is added to each well (n=3).
Following a 20 min incubation at 37° C. in the cell culture incubator, 20 μL of ^14C-citrate working solution is added to each well (final volume per well: 120 μL; final ^14C-citrate concentration ˜1.8 μM/well)).
After incubation over night at 37° C. in the cell culture incubator, the plates are sealed on the top using a transparent plastic foil and on the bottom using a white plastic foil. Following the sealing, the plate is placed into the TopCount NXT HTS and the signal is recorded.
(§2) The IC50 values of the compounds are calculated in IDBS XLfit by sigmoidal dose-response (variable slope).

[2] = biological target: T1, hSLC13A5; assay: Recombinant hSLC13A5/14C-citrate uptake assay; assay type: cell-based; settings: HEK293 Flp-In cells over-expressing hSLC13A5; WGA-PVT SPA beads; 14C-citrate approx. 2 μM; 4 h
Text: (5) Recombinant hSLC13A5/^14C-Citrate Uptake Assay
The human embryonic kidney 293 (HEK 293)-Flp-In cells (293Flp-In-hSLC13A5) over-expressing hSLC13A5 transporter were cloned: The originating plasmid pcDNA3.1-hSLC13A5 containing hSLC13A5 was synthesized at GeneArt. The cDNA for hSLC13A5 was taken from this plasmid by means of PCR amplification using primers with added HindIII (N-terminal) and XhoI (C-terminal) restriction sites and sub-cloned in frame into pcDNA5/FRT from Invitrogen using the respective restriction enzymes. HEK293 Flp-In cells from Invitrogen were stably co-transfected using the pcDNA/FRT-hSLC13A5 plasmid as well as the pOG44 plasmid.
HEK 293-Flp-In cells are used that stably over-express hSLC13A5 transporter which is responsible for the uptake of citrate into these cells.
The uptake of ^14C-citrate into the 293Flp-In-hSLC13A5 cells is monitored using the WGA-PVT SPA (wheat germ agglutinin-polyvinyltoluene scintillation proximity assay) beads that bind to the 293Flp-In cells due to their WGA-PVT surface. This assay format is based on the imported radioactive citrate brought into proximity with the SPA beads by virtue of the biological processes within the cells. The radioactive decay is converted into a light signal that can be measured using e.g. the TopCount plate reader.
as §1
Test Compound Dilutions (2Fold-Concentrated):
Starting from 10 mM stock solutions in 100% DMSO, compounds are diluted in pure DMSO using the appropriate dilution steps.
Prior to the uptake assay, 200 μL assay medium (lx HBSS (with Ca^2+ and Mg^2+, w/o Phenolred), contains 5.56 mM D(+)-Glucose)+19.44 mM D(+)-Glucose (final concentration of D(+)-Glucose is 25 mM))+4.8 μL compound solution (or pure DMSO for non-inhibited control wells) are mixed (final DMSO concentration in the assay: 1% (v/v)).
After preparing the 2fold-concentrated test compound dilutions, 50 μL are pipetted to each well of white OptiPlates-96 and incubated at 37° C. in an incubator.
^14C-Citrate Working Solution (Volumes Required Per 96-Well):
The 293Flp-In-hSLC13A5 cells are cultivated in cell culture medium (DMEM+10% fetal calf serum+100 μg/mL Hygromycin B). The medium of the confluent cultures is discarded and the cells are washed with DPBS (w/o Mg^2+ w/o Ca^2+). The cells are detached by the addition of 2.0 mL Accumax per 75 cm^2 culture flask for up to 3 minutes at 37° C. and resuspended in 10 mL assay medium. After cell counting, 50,000 cells/well are administered in a volume of 50 μL into the white OptiPlates-96 containing the respective test compound concentrations. Following a 20 min incubation at 37° C. in the cell culture incubator, 20 μL of ^14C-citrate working solution is added to each well (final volume per well: 120 μL; final ^14C-citrate concentration: approx. 2 μM/well).
After incubation for 4 h at 37° C. in a humid cell culture incubator and the addition of 30 μL of WGA-PVT SPA beads to each well (0.25 mg/well), the plates are sealed on the top using a transparent plastic foil. Incubate the plates for 1 h by room temperature and gentle shaking.
After incubation, the plate is placed into the TopCount NXT HTS and the signal is recorded.
The performance of the test compounds is calculated as follows:
Wells containing cells incubated with 1% DMSO only deliver values for the non-inhibited ^14C-citrate uptake into 293Flp-In-hSLC13A5 cells (100% CTL). Wells containing cells which have received 30 mM non-labelled potassium citrate solution in addition to the ^14C-citrate working solution deliver values for the background (0% CTL).
as §2

T1 sequence (Q86YT5 whole entry): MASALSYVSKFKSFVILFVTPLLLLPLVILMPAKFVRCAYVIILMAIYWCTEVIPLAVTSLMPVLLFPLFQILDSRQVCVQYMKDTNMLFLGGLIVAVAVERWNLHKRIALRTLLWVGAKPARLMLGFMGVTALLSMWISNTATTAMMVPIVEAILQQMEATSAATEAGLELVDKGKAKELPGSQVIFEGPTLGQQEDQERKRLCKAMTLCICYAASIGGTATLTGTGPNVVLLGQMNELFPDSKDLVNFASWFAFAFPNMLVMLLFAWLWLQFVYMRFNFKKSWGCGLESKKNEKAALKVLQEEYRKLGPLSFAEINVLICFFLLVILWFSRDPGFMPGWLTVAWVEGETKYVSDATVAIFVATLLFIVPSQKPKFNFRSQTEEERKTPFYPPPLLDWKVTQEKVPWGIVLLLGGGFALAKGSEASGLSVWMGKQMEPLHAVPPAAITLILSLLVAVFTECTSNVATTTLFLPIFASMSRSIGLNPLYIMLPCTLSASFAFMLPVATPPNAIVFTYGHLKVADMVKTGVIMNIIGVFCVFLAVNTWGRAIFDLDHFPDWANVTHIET

pIC50 [1]	pIC50 [2]	Structure (SMILES)
7.66	7.25	O=C(NCc1ccc(Cl)cc1)C1CCN(S(=O)(=O)c2cc(Cl)cc(Cl)c2)CC1 [(I-5)]
7.13	7.10	N#Cc1ccc(CNC(=O)C2CCN(S(=O)(=O)c3cc(Cl)cc(Cl)c3)CC2)cc1 [Example (I-1)]
6.95	6.47	Cc1cnc(CNC(=O)C2CCN(S(=O)(=O)c3cc(Cl)cc(Cl)c3)CC2)s1 [(I-27)]
6.63	6.41	O=C(NCc1ccc(F)cn1)C1CCN(S(=O)(=O)c2cc(Cl)cc(Cl)c2)CC1 [(I-20)]
7.62	7.25	O=C(NCc1ccc(F)cc1)C1CCN(S(=O)(=O)c2cc(Cl)cc(Cl)c2)CC1 [(I-10)]
6.82	6.71	Cc1ccc(CNC(=O)C2CCN(S(=O)(=O)c3cc(Cl)cc(Cl)c3)CC2)nc1 [(I-15)]
7.46	7.06	O=C(NCc1ccccc1F)C1CCN(S(=O)(=O)c2cc(Cl)cc(Cl)c2)CC1 [(I-2)]
7.00	6.81	CCOc1cc(Cl)cc(S(=O)(=O)N2CCC(C(=O)NCc3nccs3)CC2)c1 [(I-49)]
6.83	6.36	Cc1cc(Br)cc(S(=O)(=O)N2CCC(C(=O)NCc3ccccn3)CC2)c1 [(I-61)]
6.34	6.16	O=C(NCc1ccccn1)C1CCN(S(=O)(=O)c2cc(Cl)cc(Cl)c2)CC1 [(I-11)]
